Data reported in article PMC9503778, “Targeted Isolation of Antibiotic Brominated Alkaloids from the Marine Sponge Pseudoceratina durissima Using Virtual Screening and Molecular Networking” (Marine Drugs, 2022).
“And” between values parts separate entries of the source, which are not always exact repeats. Equal entries are not always repeated. Where two headings read alike, the source gives them in different places.

How the values were obtained:
[1] = test system: human red blood cells; assay: Haemolysis assay (CO-ADD); type: cell-based
[2] = test system: E. Coli (G-) strain ATCC 25922; assay: Antimicrobial growth inhibition (CO-ADD), E. coli; type: cell-based, Escherichia coli; conditions: for % inhibition E. coli: 32 µg/mL; for inhibition at 32 µg/mL / MIC: Escherichia coli
Experimental: (§1) Compounds 1−3 and 5−12 were assayed against a selection of medically important pathogenic microorganisms (MRSA, E. coli, K. pneumoniae, A. baumanii, P. aeruginosa, C. albicans, C. neoformans), Table 4. […] To the best of our knowledge this compound had not been tested against any drug resistant strain of Gram-positive bacterium until this study.
(§2) The antimicrobial activity testing was performed by the Community for Antimicrobial Drug Discovery (CO-ADD). Compounds were assayed against a range of both Gram negative and Gram positive bacteria (see Supplementary Materials S3) including methicillin-resistant Staphylococcus aureus (MRSA) (G+), Escherichia coli (G-), Klebsiella pneumoniae (G-), Acinetobacter baumannii (G-), Pseudomonas aeruginosa (G-) together with two species of fungus (Candida albicans and Cryptococcus neoformans).
(§3) S3. Antimicrobial activity testing methodology
(§4) The compounds submitted to CO-ADD were evaluated in duplicate (n = 2) against seven microorganisms (five bacteria and two fungi) at a concentration of 32 µg/mL in a 384-well, non-binding surface plate (NBS) for each bacterial/fungal strain, keeping the final DMSO concentration to a maximum of 1% DMSO. All bacteria were cultured in cation-adjusted Mueller-Hinton broth (CAMHB) at 37 °C overnight. A sample of each culture was then diluted 40-fold in fresh broth and incubated at 37 °C for 1.5-3 h. The resultant mid-log phase cultures were diluted (CFU/mL measured by OD600), then added to each well of the compound containing plates, giving a cell density of 5x10^5 CFU/mL and a total volume of 50 µL. All the plates were covered and incubated at 37 °C for 18 h without shaking. […] Inhibition of bacterial growth was determined measuring absorbance at 600 nm (OD600) using a Tecan M1000 Pro mon-ochromator plate reader. […]
(§5) 2 h. The absorbance was measured using a Biotek Synergy HTX plate reader. The percentage of growth inhibition was calculated for each well, using negative control (medium only) and positive control (bacteria without inhibitors) on the same plate as the references. The significance of inhibition values was determined by modified Z-scores, calculated using the median and MAD of the samples (no controls) on the same plate. Samples with inhibition value above 80% and Z-score above 2.5 for either replicate (n = 2 on different plates) were classed as actives.
(§6) Colistin and vancomycin were used as positive bacterial inhibitor standards for Gram-negative and Gram-positive bac-teria, respectively. Fluconazole was used as a positive fungal inhibitor standard for C. albicans and C. neoformans. The antibiotics were provided in four concentrations, with two above and two below its MIC value, and plated into the first eight wells of column 23 of the 384-well NBS plates. The quality control (QC) of the assays was determined by the antimicrobial controls and the Z’-factor (using positive and negative controls). Each plate was deemed to fulfil the qual- […]
(§7) full growth inhibition at their highest concentration, and no growth inhibition at their lowest concentration. The seven […]
(§8) test microorganisms were Staphylococcus aureus MRSA (ATCC 43300), Escherichia coli (ATCC 25922), Klebsiella pneu-moniae (ATCC 700603), Acinetobacter baumanii (ATCC19606), Pseudomonas aeruginosa (ATCC 27853), Candida albicans (ATCC 90028) and Cryptococcus neoformans var. grubii (H99; ATCC 208821).
(§9) S4. Anthelmintic activity testing methodology
(§10) Dose-response evaluations were carried out to estimate the half-maximal inhibitory concentrations (IC50 values) for compounds against Haemonchus contortus (Haecon-5 strain) exsheathed third-stage larvae (xL3s). H. contortus were maintained in experimental sheep and procured in accordance with the institutional animal ethics guidelines and the regulations of Australia (permit no. 1714374; University of Melbourne). Immediately prior to use, third-stage larvae (L3s) were exsheathed and sterilised by incubation in 0.15% (v/v) bleach at 38 °C for 20 min, followed by washes in […]

[3] = test system: K. pneumoniae (G-) strain ATCC 700603; assay: Antimicrobial growth inhibition (CO-ADD), K. pneumoniae; type: cell-based, Klebsiella pneumoniae; conditions: for % inhibition K. pneumoniae: 32 µg/mL; for MIC / inhibition at 32 µg/mL: Klebsiella pneumoniae
Experimental: as §1, §2, §3, §4, §5, §6, §7, §8, §9, §10

[4] = test system: A. baumannii (G-) strain ATCC 19606; assay: Antimicrobial growth inhibition (CO-ADD), A. baumannii; type: cell-based, Acinetobacter baumannii; conditions: for MIC / inhibition at 32 µg/mL: Acinetobacter baumannii; for % inhibition A. baumannii: 32 µg/mL
Experimental: as §1, §2, §3, §4, §5, §6, §7, §8, §9, §10

[5] = test system: C. albicans (yeast) ATCC 90028; assay: Antimicrobial growth inhibition (CO-ADD), C. albicans; type: cell-based, Candida albicans; conditions: for % inhibition C. albicans: 32 µg/mL, duplicate (n = 2) values; for inhibition at 32 µg/mL / MIC: Candida albicans; for inhibition at 32 µg/mL: ATCC90028, read-out: % inhibition C. albicans, 32 µg/mL, duplicate (n = 2) values
Experimental: as §1, §2, §3
The compounds submitted to CO-ADD were evaluated in duplicate (n = 2) against seven microorganisms (five bacteria and two fungi) at a concentration of 32 µg/mL in a 384-well, non-binding surface plate (NBS) for each bacterial/fungal strain, keeping the final DMSO concentration to a maximum of 1% DMSO. All bacteria were cultured in cation-adjusted […]
Fungal strains were cultured for 3 days on Yeast Extract-Peptone Dextrose (YPD) agar at 30 °C. A yeast suspension of 1 x 10^6 to 5 x 10^6 CFU/mL (as determined by OD530) was prepared from five colonies. The suspension was subsequently diluted and added to each well of the compound-containing plates giving a final cell density of fungi suspension of 2.5 x 10^3 CFU/mL and a total volume of 50 µL. All plates were covered and incubated at 35 °C for 24 h without shaking. […]
as §5, §6, §7, §8, §9
Dose-response evaluations were carried out to estimate the half-maximal inhibitory concentrations (IC50 values) for compounds against Haemonchus contortus (Haecon-5 strain) exsheathed third-stage larvae (xL3s). H. contortus were maintained in experimental sheep and procured in accordance with the institutional animal ethics guidelines and the regulations of Australia (permit no. 1714374; University of Melbourne). Immediately prior to use, third-stage larvae (L3s) were exsheathed and sterilised by incubation in 0.15% (v/v) bleach at 38 °C for 20 min, followed by washes in sterile saline at room temperature (22-24 °C). […]

[6] = test system: C. neoformans var. grubii strain ATCC 208821; assay: Antimicrobial growth inhibition (CO-ADD), C. neoformans; type: cell-based; conditions: Cryptococcus neoformans
[7] = ATCC25922, read-out: % inhibition E. coli, 32 µg/mL, duplicate (n = 2) values
[8] = ATCC25922, 32 µg/mL, duplicate (n = 2) values, read-out: % inhibition E. coli
[9] = ATCC25922, ATCC 25922, MIC = concentration at which growth inhibited by ≥80%, read-out: MIC E. coli
[10] = ATCC700603, 32 µg/mL, duplicate (n = 2) values, read-out: % inhibition K. pneumoniae
[11] = ATCC700603, ATCC 700603, read-out: MIC K. pneumoniae
[12] = ATCC19606, ATCC 19606, read-out: MIC A. baumannii
[13] = ATCC90028, ATCC 90028, read-out: MIC C. albicans
[14] = ATCC208821, var. grubii ATCC 208821, read-out: MIC C. neoformans
[15] = ATCC700603, read-out: % inhibition K. pneumoniae, 32 µg/mL, duplicate (n = 2) values
[16] = ATCC19606, 32 µg/mL, duplicate (n = 2) values, read-out: % inhibition A. baumannii

Row | SMILES | Haemolysis (HC10) [1] [µg/mL] | % inhibition E. coli ([2]; duplicate (n = 2) values) | % inhibition K. pneumoniae ([3]; duplicate (n = 2) values) | % inhibition C. albicans [5] | MIC [2, 9] [µg/mL] | inhibition at 32 µg/mL [3, 10] [%] | MIC [3, 11] [µg/mL] | % inhibition A. baumannii ([4]; duplicate (n = 2) values) | MIC [4, 12] [µg/mL] | MIC [5, 13] [µg/mL] | MIC [6, 14] [µg/mL] | further results
1 | COC1=C(Br)[C@H](O)[C@](O)(CC#N)C=C1Br [Compound 1, (+)-aeroplysinin-1] | >32 | 95.2% | −2.8% and −3.3% | 9.8% |  |  |  |  |  |  |  | inhibition at 32 µg/mL [2, 7]: 93.7%; MIC ([2]; ATCC25922, read-out: MIC E. coli): 32 µg/mL; inhibition at 32 µg/mL ([2]; ATCC25922, read-out: mean value of % inhibition against E. coli, 32 µg/mL, mean of duplicates): 94.5%; MIC ([3]; ATCC700603, read-out: MIC K. pneumoniae): > 32 µg/mL; MIC ([4]; ATCC19606, read-out: MIC A. baumannii): > 32 µg/mL; inhibition at 32 µg/mL [5]: 9.5%; MIC ([5]; ATCC90028, read-out: MIC C. albicans): > 32 µg/mL; MIC ([6]; ATCC208821, read-out: MIC C. neoformans): > 32 µg/mL
2 | COC1(OC)C(Br)=CC(O)(CC(N)=O)C=C1Br [Compound 6, 2-(3,5-dibromo-1-hydroxy-4,4-dimethoxycyclohexa-2,5-dien-1-yl)acetamide] | >32 | 15.6% | 6.4% | 0.6% and 4.6% | > 32 | 12.3 | > 32 | 2.3% and 9.7% | > 32 | > 32 | > 32 | inhibition at 32 µg/mL [2, 8]: 14.6%
3 | COC1=C(Br)[C@H](O)[C@@]2(C=C1Br)CC(C(=O)NCCCOc1c(Br)cc(CCN)cc1Br)=NO2 [Compound 11, araplysillin I] | >32 | 8.5% | 17.0% |  | > 32 |  | > 32 | 3.4% and 7.3% | > 32 | > 32 | > 32 | inhibition at 32 µg/mL [2, 7]: 15.9%; inhibition at 32 µg/mL [3, 15]: 12.2%
4 | COc1c(Br)cc(CC#N)c(O)c1Br [Compound 8, 2-(3,5-dibromo-2-hydroxy-4-methoxyphenyl)acetonitrile] | >32 | 16.9% | 12.5% |  | > 32 | 10.3 | > 32 | 7.5% | > 32 | > 32 | > 32 | inhibition at 32 µg/mL [2, 8]: 12.7%; inhibition at 32 µg/mL [4, 16]: 11%
5 | NC(=O)Cc1c(O)cc(Br)c(O)c1Br [Compound 9, subereaphenol A] | 1.032 | 1.5% and 9.6% | 15.5% and 6.6% |  | > 32 |  | > 32 | 18.5% | > 32 | > 32 | > 32 | inhibition at 32 µg/mL [4, 16]: 10.8%
6 | COC1=C(Br)[C@H](O)[C@@]2(C=C1Br)CC(C(=O)NCCCCNC(=O)C1=NO[C@]3(C=C(Br)C(OC)=C(Br)[C@@H]3O)C1)=NO2 [Compound 2, aerothionin] | >32 | 0.9% and 2.3% | 10.9% | 0.5% and 4.2% | > 32 | 10.4 | > 32 |  | > 32 | > 32 | > 32 | 
7 | COC1=C(Br)[C@H](O)[C@@]2(C=C1Br)CC(C(=O)NCCCCCNC(=O)C1=NO[C@]3(C=C(Br)C(OC)=C(Br)[C@@H]3O)C1)=NO2 [Compound 3, homoaerothionin] | >32 | −2.9% and −3.1% | 6.6% | 6.3% | > 32 |  | > 32 | 9.8% | > 32 | > 32 | > 32 | inhibition at 32 µg/mL [3, 15]: 10.2%; inhibition at 32 µg/mL ([4]; ATCC19606, read-out: % inhibition A. baumannii, 32 µg/mL, duplicate (n = 2) values): 13.8%; inhibition at 32 µg/mL [5]: 3.4%
